Values of other authors, collected in US10759750B2, “Beta lactams as modulators of glutamate uptake and methods for use thereof” (Temple University—Of The Commonwealth System of Higher …, priority 2016, dated 2020).
Read-outs that look alike come from different tables or passages of the source.

Legend:
[1] = tested on: amyotrophic lateral sclerosis (ALS); conditions: ALS patients; 50 mg of Riluzole daily and palliative drugs; after 15 months of treatment

Compound | increase in life expectancy [1] | free, unbound cerebrospinal fluid/plasma ratio (based on AUCs (Lutsar and Friedland, 2000)) [%] | free, unbound cerebrospinal fluid/plasma ratio (based on Cmax (Chadwick et al., 1983))
Nc1nc2ccc(OC(F)(F)F)cc2s1 [Riluzole] | 2-3 months | – | –
CO/N=C(\C(=O)N[C@@H]1C(=O)N2C(C(=O)O)=C(CSc3nc(=O)c(=O)[nH]n3C)CS[C@H]12)c1csc(N)n1 [ceftriaxone] | – | 1 | 2-13%
